Data published in the NIST ThermoML archive (doi:10.1021/acs.jced.7b00227).
Numbers after ± are expanded uncertainties.

What was measured:
[1] = Molar enthalpy of transition or fusion; conditions: Crystal; DSC

O=Cc1ccc(O)cc1 [4-hydroxybenzaldehyde]
Conditions	Molar enthalpy of transition or fusion [kJ/mol]
[1]	21.6 ± 0.9

Conditions	vapor or sublimation pressure [kPa]
319.14 K, Crystal, Calculated from knudsen effusion weight loss	7.6e-05 ± 2e-05
321.31 K, Crystal, Calculated from knudsen effusion weight loss	0.000101 ± 2e-05
323.2 K, Crystal, Calculated from knudsen effusion weight loss	0.000124 ± 2e-05
325.16 K, Crystal, Calculated from knudsen effusion weight loss	0.000152 ± 2.1e-05
327.35 K, Crystal, Calculated from knudsen effusion weight loss	0.000196 ± 2.1e-05
329.21 K, Crystal, Calculated from knudsen effusion weight loss	0.00024 ± 2.2e-05
331.15 K, Crystal, Calculated from knudsen effusion weight loss	0.000305 ± 2.3e-05
333.36 K, Crystal, Calculated from knudsen effusion weight loss	0.000383 ± 2.4e-05
334.88 K, Crystal, Closed cell (Static) method	0.00047 ± 0.00012
335.2 K, Crystal, Calculated from knudsen effusion weight loss	0.000476 ± 2.6e-05
336.84 K, Crystal, Closed cell (Static) method	0.00058 ± 0.00012
337.14 K, Crystal, Calculated from knudsen effusion weight loss	0.000583 ± 2.9e-05
338.82 K, Crystal, Closed cell (Static) method	0.00072 ± 0.00012
339.28 K, Crystal, Calculated from knudsen effusion weight loss	0.000737 ± 3.3e-05
340.78 K, Crystal, Closed cell (Static) method	0.00089 ± 0.00012
341.2 K, Crystal, Calculated from knudsen effusion weight loss	0.00091 ± 3.8e-05
342.79 K, Crystal, Closed cell (Static) method	0.00109 ± 0.00012
344.73 K, Crystal, Closed cell (Static) method	0.00133 ± 0.00013
346.72 K, Crystal, Closed cell (Static) method	0.00165 ± 0.00013
348.7 K, Crystal, Closed cell (Static) method	0.00199 ± 0.00014
350.66 K, Crystal, Closed cell (Static) method	0.00241 ± 0.00015
352.65 K, Crystal, Closed cell (Static) method	0.00296 ± 0.00017
354.62 K, Crystal, Closed cell (Static) method	0.00358 ± 0.00019
356.58 K, Crystal, Closed cell (Static) method	0.00433 ± 0.00021
358.56 K, Crystal, Closed cell (Static) method	0.00525 ± 0.00024
360.53 K, Crystal, Closed cell (Static) method	0.0064 ± 0.00028
362.52 K, Crystal, Closed cell (Static) method	0.00769 ± 0.00033
364.51 K, Crystal, Closed cell (Static) method	0.00915 ± 0.00038
366.46 K, Crystal, Closed cell (Static) method	0.01071 ± 0.00044
368.43 K, Crystal, Closed cell (Static) method	0.01274 ± 0.00051
370.43 K, Crystal, Closed cell (Static) method	0.01545 ± 0.00056
372.39 K, Crystal, Closed cell (Static) method	0.01842 ± 0.0006
374.32 K, Crystal, Closed cell (Static) method	0.02206 ± 0.00066
376.26 K, Crystal, Closed cell (Static) method	0.02606 ± 0.00072
378.18 K, Metastable liquid, Closed cell (Static) method	0.03765 ± 0.0009
378.32 K, Crystal, Closed cell (Static) method	0.03067 ± 0.00079
380.28 K, Metastable liquid, Closed cell (Static) method	0.04331 ± 0.00099
380.29 K, Crystal, Closed cell (Static) method	0.03625 ± 0.00087
382.26 K, Metastable liquid, Closed cell (Static) method	0.04915 ± 0.0011
384.18 K, Metastable liquid, Closed cell (Static) method	0.05575 ± 0.0012
385.95 K, Metastable liquid, Closed cell (Static) method	0.06255 ± 0.0013
388.15 K, Metastable liquid, Closed cell (Static) method	0.07155 ± 0.0014
390.14 K, Metastable liquid, Closed cell (Static) method	0.08085 ± 0.0016
392.11 K, Closed cell (Static) method, Liquid	0.09145 ± 0.0017
393.98 K, Closed cell (Static) method, Liquid	0.1013 ± 0.0019
396.02 K, Closed cell (Static) method, Liquid	0.1156 ± 0.0021
398.08 K, Closed cell (Static) method, Liquid	0.132 ± 0.0021
399.97 K, Closed cell (Static) method, Liquid	0.1466 ± 0.0022
402.15 K, Closed cell (Static) method, Liquid	0.1659 ± 0.0023
403.9 K, Closed cell (Static) method, Liquid	0.184 ± 0.0025
406.15 K, Closed cell (Static) method, Liquid	0.2077 ± 0.0027
407.83 K, Closed cell (Static) method, Liquid	0.2288 ± 0.0029
409.81 K, Closed cell (Static) method, Liquid	0.2537 ± 0.0031
411.77 K, Closed cell (Static) method, Liquid	0.281 ± 0.0033
413.71 K, Closed cell (Static) method, Liquid	0.315 ± 0.0036
415.68 K, Closed cell (Static) method, Liquid	0.3477 ± 0.0039
417.65 K, Closed cell (Static) method, Liquid	0.3831 ± 0.0042
419.62 K, Closed cell (Static) method, Liquid	0.4264 ± 0.0046
421.57 K, Closed cell (Static) method, Liquid	0.4738 ± 0.005
423.73 K, Closed cell (Static) method, Liquid	0.5285 ± 0.0055
425.48 K, Closed cell (Static) method, Liquid	0.5776 ± 0.0059
427.46 K, Closed cell (Static) method, Liquid	0.6379 ± 0.0064
429.41 K, Closed cell (Static) method, Liquid	0.7018 ± 0.007

Conditions	Normal melting temperature [°C]
Crystal, DTA	117.1 ± 0.5
